≈ marks a conversion by molar mass, not a printed value.
Legend:
[1] = system: Eimeria maxima Strain FS-410; assay: anticoccidial feed test in infected chickens, ionophore-resistant strain; format: in vivo
[2] = system: Streptococcus faecium X66; format: cell-based; settings: Enterococcus faecium, X66, 24 h
[3] = system: Eimeria acervulina Strain 59 And E. tenella Strain 155; assay: anticoccidial feed test in infected chickens, ionophore-sensitive strains; format: in vivo

CC[C@@H](O)[C@]1(C)C[C@H](C)[C@@](O)([C@H]2C[C@H](C)[C@H]([C@]3(C)C[C@@H](O[C@H]4CC[C@H](OC)[C@@H](C)O4)[C@H]([C@]4(C)CC[C@@]5(O[C@H]([C@@H](C)[C@@H](OC)[C@H](C)C(=O)O)[C@H](C)[C@@H](OC)[C@H]5C)O4)O3)O2)O1 [Example A82810]
AVERAGE INTESTINAL LESION SCORES ([1]; 1.25 ppm): 4.0
WEIGHT GAIN, PERCENT OF CONTROL ([1]; 1.25 ppm): 93% OF CONTROL
AVERAGE INTESTINAL LESION SCORES ([1]; 1.5 ppm): 3.3
INTESTINAL LESION SCORE ([1]; 1.5 ppm): 4.0
AVERAGE INTESTINAL LESION SCORES ([1]; 1.75 ppm): 3.8
WEIGHT GAIN, PERCENT OF CONTROL ([1]; 1.75 ppm): 91% OF CONTROL
INTESTINAL LESION SCORE ([1]; 2 ppm): 4.0
LESION SCORE ([1]; 2 ppm): 2.3
PERCENT REDUCTION IN OOCYST PRODUCTION ([1]; 2 ppm): 18%
AVERAGE INTESTINAL LESION SCORES ([1]; 2.5 ppm): 3.8
WEIGHT GAIN, PERCENT OF CONTROL ([1]; 2.5 ppm): 90% OF CONTROL
AVERAGE INTESTINAL LESION SCORES ([1]; 3 ppm): 3.1
WEIGHT GAIN, PERCENT OF CONTROL ([1]; 3 ppm): 88% OF CONTROL
AVERAGE INTESTINAL LESION SCORES ([1]; 3.5 ppm): 3.5
WEIGHT GAIN, PERCENT OF CONTROL ([1]; 3.5 ppm): 88% OF CONTROL
AVERAGE INTESTINAL LESION SCORES ([1]; 5 ppm): 4.0
WEIGHT GAIN, PERCENT OF CONTROL ([1]; 5 ppm): 74% OF CONTROL
AVERAGE INTESTINAL LESION SCORES ([1]; 6 ppm): 4.0
LESION SCORE ([1]; 6 ppm): 2.7
PERCENT REDUCTION IN OOCYST PRODUCTION ([1]; 6 ppm): 18%
LESION SCORE ([1]; 10 ppm): 2.4
PERCENT REDUCTION IN OOCYST PRODUCTION ([1]; 10 ppm): 36%
WEIGHT GAIN, PERCENT OF CONTROL ([1]; 10 ppm): 88% OF CONTROL
MIC [2]: 1 µg/mL (≈ 1.19 µM)
TOTAL LESION SCORE ([3]; 0.5 ppm): 12.1
WEIGHT GAIN, PERCENT OF CONTROL ([3]; 0.5 ppm): 60% OF CONTROL
TOTAL LESION SCORE ([3]; 1 ppm): 10.7
WEIGHT GAIN, PERCENT OF CONTROL ([3]; 1 ppm): 81% OF CONTROL
AVERAGE CECAL LESION SCORES ([3]; 1.25 ppm): 3.2
AVERAGE INTESTINAL LESION SCORES ([3]; 1.25 ppm): 6.0
WEIGHT GAIN, PERCENT OF CONTROL ([3]; 1.25 ppm): 87% OF CONTROL
AVERAGE CECAL LESION SCORES ([3]; 1.5 ppm): 2.6
AVERAGE INTESTINAL LESION SCORES ([3]; 1.5 ppm): 3.6
AVERAGE CECAL LESION SCORES ([3]; 1.75 ppm): 2.0
AVERAGE INTESTINAL LESION SCORES ([3]; 1.75 ppm): 2.3
WEIGHT GAIN, PERCENT OF CONTROL ([3]; 1.75 ppm): 82% OF CONTROL

— EP0341019A2, “Polyether antibiotic” (priority 1988, dated 1989)
